# Assay results reported in patent publication US20050107315A1, “Mammary-associated serum amuloid a3 promoter sequences and used for same” (Board of Regents of the University of Nebraska, priority 2001, published 2005).
# B1: prolactin: prolactin from sheep pituitary gland (protein, UniProt P01240 31-229, looked up)
# Prolactin: TPVCPNGPGNCQVSLRDLFDRAVMVSHYIHNLSSEMFNEFDKRYAQGKGFITMALNSCHTSSLPTPEDKEQAQQTHHEVLMSLILGLLRSWNDPLYHLVTEVRGMKGVPDAILSRAIEIEEENKRLLEGMEMIFGQVIPGAKETEPYPVWSGLPSLQTKDEDARHSAFYNLLHCLRRDSSKIDTYLKLLNCRIIYNNNC
# B2: colostrum-SAA: bovine mammary-associated serum amyloid A 3, purified from colostrum or MAC-T cell culture fluid (protein)
# chain: QRWGTFLKEAGQGAKDMWRAYQDMKEANYRGADKYFHARGNYDAARRGPGGAWAAKVISNARETIQGITDPLFKGMTRDQVREDSKADQFANEWGRSGKDPNHFRPAGLPDKY
# Experiments:
# MUC3 mRNA = MUC3 mRNA induction in intestinal epithelial cells (MUC3 mRNA/28S rRNA ratio); type: cell-based, human; conditions: for MUC3/28S rRNA ratio, mean: 30 min 37° C.; for MUC3/28S rRNA ratio, mean / MUC3 mRNA/28S rRNA ratio, mean: control = 100; for MUC3 mRNA/28S rRNA ratio, mean / MUC3 mRNA stimulation (in words): peptides at 50 μg/ml, 30 minutes at 37° C.; for MUC3 mRNA stimulation (in words): versus control
# Source text: (§1) Different mucin genes have been identified and to date, thirteen human mucin genes have been identified. However, MUC3 mucin is the predominant small intestinal mucin. It has previously been shown that the MUC3 mucins are effective in preventing the adherence of enteropathogenic Escherichia coli (EPEC) to intestinal epithelial cells. […] It is also well known that breast-feeding infants are far less susceptible to infectious diarrhea than formula fed infants. There are a number of theories why this is so, but it is hypothesized that milk-associated amyloid (colostrum SAA) may be an important inducer of MUC3 gene expression. Applicant has evaluated MUC3 mRNA expression using an in vitro human cell culture assay system. […] To further explore this finding, Applicant has evaluated the functional specificity of the N-terminal peptide sequence of colostrum SAA by evaluation of MUC3 expression in the same in vitro assay using colostrum SAA N-terminal peptide sequences that have been randomly scrambled and a colostrum SAA peptide sequence downstream of the N-terminal sequence. If the expression of MUC3 is increased then intestinal cells grown in the presence of colostrum SAA should have a greater capacity to inhibit adherence of bacterial pathogens. This was studied (FIG. 2B) using EPEC in an in vitro assay system pre-incubated with colostrum SAA in the cell culture medium. Enteropathogenic E. coli are non-invasive, non-toxin producing pathogens that have been recognized as a significant cause of diarrhea in third world countries and in day care settings in developed countries. Future studies will evaluate the benefits of colostrum SAA in in vivo studies as well as characterized animal equivalent to human EPEC. Colostrum associated SAA provides a means to naturally upregulate the innate protective mechanisms of the human intestine and would provide a novel form of therapy to a common problem that occurs all too often in the third world leads to death of infants and in the developed world countries and leads to significant morbidity and cost. Thus, this is an effective, natural, non-drug/chemical therapy for all infectious diarrhea.
# (§2) These four peptides were used in a cell culture assay designed to evaluate them for their properties of inducing mucin (MUC) mRNA production, either MUC3 or MUC2 according to the methods described by Mack et al. (Biochem. Biophys. Res. Commun. 199: 1012-1018, 1994 and Am J Physiol. Vol. 4, part 1, pg. G841-950, 1999).
# Intestinal epithelial cells, Mack et al. 1994, 1999, were exposed to the N-terminal 10 amino acid bovine colostrum-SAA peptide at various concentrations for 30 minutes incubation at 37° C. The cells were incubated an additional hour following replacement of the test medium with fresh medium without peptide and then the total cellular mRNA isolated and analyzed for MUC3 specific mRNA.
# MUC3 stimulating activity of the N-terminal 10 amino acid bovine colostrum-SAA peptide was compared to the activity of the “Limited Scramble”, the “Total Scramble” and “C-Terminal peptides”. Optimum time and temperature of incubation and concentration of peptides was for 30 minutes at 37° C. at 50 μg/ml respectively.
# MUC2 mRNA = MUC2 mRNA induction in intestinal epithelial cells (MUC2 mRNA/28S rRNA ratio); type: cell-based, human; conditions: for MUC2 mRNA/28S rRNA ratio, mean: conditions favoring MUC2 expression, peptides at conditions optimized for MUC3 (50 μg/ml, 30 min), control = 100
# Source text: as §2
# MUC2 Stimulation. To address whether the N-Terminal 10 amino acid bovine colostrum-SAA peptide would stimulate mRNA synthesis for MUC2 production, intestinal epithelial cells were cultured under conditions favoring MUC2 expression rather than MUC3. All peptides were used at concentrations and conditions that were previously optimized for MUC3 stimulation. None of the peptides stimulated the production of MUC2 mRNA. […] Additionally, conditions were changed to 2× the optimum MUC3 incubation time (1 hr). […] The evidence strongly indicates specificity of function in stimulating the production of a mucin produced mainly in the small intestine (MUC3) over one produced primarily in the large intestine (MUC2).
# [1] = system: EPEC adherence to HT29 human intestinal cells; experiment: Inhibition of EPEC adherence to HT29 cells (FIG. 4B); type: cell-based, enteropathogenic Escherichia coli; conditions: before 10^6 CFU/well EPEC, 3 h incubation, P<0.03
# Method: FIG. 4B is a graph showing the comparative inhibition of EPEC adherence to HT29 human intestinal cells grown in a glucose-free galactose-containing cell culture medium to enhance MUC3 expression. Each well received either 10^9 CFU of the probiotic L. rhamnosus strain GG (LrGG), a single dose (1×) of the 10-mer peptide at 50 μg/mL (LS, Bov50, or Hum50) or at 250 μg/mL (Bov250 or Hum250), or two separate doses (2×) at 1 h intervals of the 10-mer peptide at 250 μg/mL. Samples were incubated at 37° C. with the HT29 cells for either a total of 1 h (single dose, 1×) or 2 h (two doses, 2×) prior to the addition of 10^6 CFU/well of EPEC. After a 3 h incubation, EPEC adherent to the HT29 cells were quantified by determining CFU/well. Results are expressed as means ±SEM of 2-6 independent experiments run in triplicate. Amino acid sequences for the 10-mer peptides are detailed in Table 1 referred to on page 37.
# as §1, with “Colostrum associated SAA provides a means to naturally upregulate the innate protective mechanisms of the human intestine and would provide a novel form of therapy to a common problem that occurs all too often in the third world leads to death of infants and in the developed world countries and leads to significant morbidity and cost. Thus, this is an effective, natural, non-drug/chemical therapy for all infectious diarrhea.” left out
# [2] = system: Bovine MAC-T mammary gland epithelial cells; experiment: Colostrum-SAA production by MAC-T cells stimulated with prolactin (ELISA of growth media); type: cell-based
# Method: Bovine MAC-T mammary gland epithelial cells were obtained from ATCC (CRL-10274) and cultured according to recommended conditions (Turner, J D and Huynh H. Immortalized bovine mammary epithelial cell line. U.S. Pat. No. 5,227,301 dated Jul. 13, 1993). MAC-T cells were cultured on Dulbecco's Modified Eagles Media (DMEM) supplemented with 10% Fetal Calf Serum (FCS), 5 μg/ml insulin, 1μg/ml hydrocortisone and fungizone. Cells were incubated at 37° C. with 5% CO2. For colostrum-SAA production the cells were seeded onto type I Collagen coated plates. After 14 hours of incubation, the cells were washed twice with Dulbecco's phosphate buffered saline (DPBS) and incubated in media (DMEM, 5 μg/ml insulin, 1 μg/ml hydrocortisone and 2.5% FCS) supplemented with prolactin from sheep pituitary gland (5 μg/ml) for the stimulation of colostrum-SAA production. Approximately one half of the media was replaced daily with fresh prolactin supplemented media. Standard ELISA for the quantitation of SAA was used to assay aliquots of the growth media collected on the different days for the presence of colostrum-SAA.
# Cells were kept in culture for 41 days in media supplemented with prolactin. Levels of colostrum-SAA production reached a maximum of almost 3000 ng/ml.
# [3] = Isoelectric focusing / 2-D gel of SAA preparations; type: physicochemical, bovine
# Source text: The PROTEIN IEF Cell (BioRad) was used for the isoelectric focusing of the various SAA preparations. Ready Strip IPG Strips (BioRad Laboratories) with a pH range of 3-10 were used for the IEF. The second dimension (2-D) of the protein analysis was done by subjecting the IPG strips to 12% SDS-PAGE gel and electroblotting onto a PVDF membrane. The strips and blots were done in duplicate so that one of the blots could be stained with a protein stain, Coomassie Brilliant Blue, (CBB) and the other stained with the anti-SAA monoclonal antibody for the identification of the SAA protein isoforms. The samples also contained internal IEF standards (BioRad Laboratories) so that isoelectric point (pI) of each SAA isoforms could be determined. By comparing the antibody stained spots to the spots of the standards stained with CBB the apparent pI of the SAA isoforms could be determined. All of these procedures were done according to the protocol recommended by the manufacturer.
# The proteins subjected to the IEF and 2-D analysis were either affinity purified as described for the cell culture fluid or, in the case of the serum only semi-purified by hydrophobic chromatography. SAA is a highly hydrophobic molecule and will bind readily to Octyl Sepharose beads and then under the appropriate conditions can be eluted off the matrix. Briefly, serum with an elevated SAA level was tumbled for one hour with an equal volume of Octyl Sepharose CL-4B gel to allow for hydrophobic binding of the proteins from the serum to the gel. […]
# The PROTEIN IEF Cell (BioRad) was used for the isoelectric focusing of the MAA preparations. […] Ready strip IPG Strips (BioRad Laboratories) with a pH range of 3-10 and 7-10 were used for the IEF. […] By comparing the spots stained with the antibody on the blot of the 2D gel from the MAA purified from colostrum and the MAA from the culture fluid of MAC-T cells stimulated with LPS, the similarities of the isoforms could be determined. Each sample was first analyzed on a pH 3-10 IPG strip for the first dimension of separation and then a subsequent sample analyzed on a pH 7-10 IPG strip.
molecule,measurement,setting,value
MWGTFLKEAG [N-terminal],optimum concentration for MUC3 mRNA stimulation,MUC3 mRNA; 30 minutes incubation at 37° C.,50 µg/mL
same,"MUC3/28S rRNA ratio, mean",MUC3 mRNA; peptide concentration 1 (μg/ml),105.429
same,"MUC3/28S rRNA ratio, mean",MUC3 mRNA; peptide concentration 10 (μg/ml),105.857
same,"MUC3/28S rRNA ratio, mean",MUC3 mRNA; peptide concentration 25 (μg/ml),145.000
same,"MUC3/28S rRNA ratio, mean",MUC3 mRNA; peptide concentration 50 (μg/ml),220.500
same,"MUC3/28S rRNA ratio, mean",MUC3 mRNA; peptide concentration 100 (μg/ml),103.125
same,"MUC3 mRNA/28S rRNA ratio, mean",MUC3 mRNA,174.833
same,MUC3 mRNA stimulation (in words),MUC3 mRNA,increased MUC3 mRNA expression
same,MUC3 mRNA stimulation (in words),MUC3 mRNA; listed as N-Terminal,the only peptide that stimulated MUC3 mRNA statistically significantly over the control values
same,MUC2 mRNA stimulation (in words),"MUC2 mRNA; 100 and 500 μg/ml, and 2× incubation time (1 hr)",None of these changes resulted in MUC2 mRNA increase over control values
same,MUC2 mRNA stimulation (in words),MUC2 mRNA; concentrations and conditions optimized for MUC3 stimulation,not significantly different
same,"MUC2 mRNA/28S rRNA ratio, mean",MUC2 mRNA,101.167
same,EPEC adherence to HT29 cells relative to untreated cells (in words),[1]; 10-mer peptide at 50 μg/mL,significantly decreased adherence of EPEC
same,EPEC adherence to HT29 cells relative to untreated cells (in words),[1]; 10-mer peptide at 250 μg/mL,significantly decreased adherence of EPEC
GWLTFLKAAG [Hum],EPEC adherence to HT29 cells relative to untreated cells (in words),[1]; 10-mer peptide at 50 μg/mL,significantly decreased adherence of EPEC
same,EPEC adherence to HT29 cells relative to untreated cells (in words),[1]; 10-mer peptide at 250 μg/mL,significantly decreased adherence of EPEC
"SAADAAQRGPQQA [C-terminal, control 10 amino acid peptide in which the first 7 were from residues 62-69 of bovine SAA, reference compound]","MUC3 mRNA/28S rRNA ratio, mean",MUC3 mRNA,111.333
same,"MUC2 mRNA/28S rRNA ratio, mean",MUC2 mRNA,67.500
"MWGLTKFEAG [Limited Scramble, Bovine MAA with TFLK motif scrambled]","MUC3 mRNA/28S rRNA ratio, mean",MUC3 mRNA,95.000
same,MUC3 mRNA stimulation (in words),MUC3 mRNA,lack of stimulation
same,"MUC2 mRNA/28S rRNA ratio, mean",MUC2 mRNA,87.167
"GKFAWEGMTL [Total Scramble, control peptide, amino acids of the entire N-Terminal peptide arranged in random order, reference compound]","MUC3 mRNA/28S rRNA ratio, mean",MUC3 mRNA,109.333
same,"MUC2 mRNA/28S rRNA ratio, mean",MUC2 mRNA,65.833
B1,maximum level of colostrum-SAA production,"[2]; media supplemented with prolactin 5 μg/ml, 41 days in culture, collagen coated plates",~3000 ng/mL
same,day by which measurable quantities of colostrum-SAA could be detected,"[2]; prolactin at 5 μg/ml, MAC T cells, 13 days of stimulation (FIG. 2)",≤ 1 days
B2,pI,"[3]; from both colostrum and MAC-T cell culture fluid (prolactin), pH 3-10 IPG strips",greater than 8
same,apparent pI,"[3]; pH 3-10 IPG strips, internal IEF standards",9.4-9.6
same,pI,"[3]; purified from culture fluid of MAC-T cells stimulated with LPS, only one isoform, pH 3-10 and 7-10 IPG strips",9.4-9.6
